PMC7508162 (Frontiers in Pharmacology, 2020)

Key:
NPP1 = molecular target: T1, NPP1 (Homo sapiens, UniProt P22413); test: NPP1 assay with p-Nph-5'-TMP as substrate; type: biochemical; conditions: soluble NPP1; 400 µM p-Nph-5'-TMP; read-out: Ki ± SEM
T1 construct: the catalytic domains of the enzymes were amplified and sub-cloned into the expression vector pACGP67 A/B; made in house; host or cells: Sf9 insect cells
T1 sequence (P22413 98-925 limits assumed): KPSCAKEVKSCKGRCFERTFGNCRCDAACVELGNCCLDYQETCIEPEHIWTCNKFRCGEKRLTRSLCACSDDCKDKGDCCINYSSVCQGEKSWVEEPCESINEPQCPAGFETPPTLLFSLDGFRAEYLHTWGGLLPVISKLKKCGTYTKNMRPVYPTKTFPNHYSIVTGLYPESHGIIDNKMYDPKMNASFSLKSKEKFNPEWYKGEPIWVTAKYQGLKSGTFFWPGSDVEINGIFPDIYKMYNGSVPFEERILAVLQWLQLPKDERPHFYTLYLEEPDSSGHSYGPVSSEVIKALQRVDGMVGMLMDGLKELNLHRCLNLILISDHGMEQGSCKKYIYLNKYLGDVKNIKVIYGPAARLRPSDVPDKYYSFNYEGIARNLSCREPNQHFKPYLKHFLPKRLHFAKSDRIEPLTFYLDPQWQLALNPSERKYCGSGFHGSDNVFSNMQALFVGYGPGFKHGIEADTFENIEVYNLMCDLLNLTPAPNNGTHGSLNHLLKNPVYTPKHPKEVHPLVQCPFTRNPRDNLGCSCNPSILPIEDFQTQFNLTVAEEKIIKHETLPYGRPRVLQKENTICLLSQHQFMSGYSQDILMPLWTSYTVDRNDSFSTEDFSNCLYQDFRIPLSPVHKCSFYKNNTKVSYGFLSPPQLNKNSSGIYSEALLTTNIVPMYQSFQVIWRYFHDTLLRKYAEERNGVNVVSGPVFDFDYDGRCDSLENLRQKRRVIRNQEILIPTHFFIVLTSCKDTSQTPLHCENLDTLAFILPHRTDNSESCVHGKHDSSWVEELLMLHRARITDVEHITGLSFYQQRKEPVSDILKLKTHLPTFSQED
Source text: The cDNAs of the human enzymes NPP1, NPP3, NPP5, CD38 and CD73 (Genbank accession no. NM_006258, NM_005021, NM_021572, NM_ 001775, and NM_002526, respectively) were obtained from Origene (Rockville, USA). Soluble enzymes were produced as previously reported with some modifications ([Lee et al., 2015]; [Junker et al., 2019]). Briefly, the catalytic domains of the enzymes were amplified and sub-cloned into the expression vector pACGP67 A/B modified with the addition of 9 x histidine tag (His-tag) at the C-terminus (except for NPP1). The plasmids were transfected in Sf9 insect cells using Cellfectin™ II Reagent (Thermo Fisher Scientific, MA, USA) and ProEasy™ baculovirus linearized DNA (Cat.#A10S, AB Vector, LLC). Protein expression was conducted for 48 h at 27°C. The signal peptide sequence of the expression vector shuttled the proteins into the supernatant. The supernatant medium was collected, and the enzymes were purified using HisPur™ Ni^2+-NTA spin columns according to the manufacturer’s protocol. The protein concentration was determined by the method previously described by [Lowry et al. (1951)].
Inhibition of NPP1 was determined as previously described ([Lee et al., 2017b]). p-Nitrophenyl-5’-thymidine monophosphate (p-Nph-5’-TMP) was used as an artificial substrate which results in the formation of the p-nitrophenolate anion with an absorption maximum of 400 nm. Purified soluble NPP1 [0.36 µg, expressed in Sf9 insect cells as previously described ([Lee et al., 2015])] was mixed with test compound (20 µM final concentration for initial screening, 0.1–200 µM for determining concentration-dependent inhibition curves), 2% DMSO and 400 µM of p-Nph-5’-TMP as a substrate in a final volume of 100 µl. The mixture was incubated for 30 min at 37°C with gentle shaking, and the enzyme reaction was terminated by the addition of 20 µl of 1 M NaOH. The absorption was measured at 405 nm using a BMG PheraStar FS plate reader (BMG Labtech GmbH, Ortenberg, Germany).

NPP4 = molecular target: T2, NPP4 (Homo sapiens, UniProt Q9Y6X5); test: NPP4 assay with AP4A as substrate, luciferin-luciferase detection; type: biochemical; conditions: for inhibition at 10 µM: 10 µM test compound; for Ki: 20 µM AP4A, read-out: Ki ± SEM
T2 construct: 1.4 µg of NPP4 (soluble form expressed in insect cells and purified); made in house; host or cells: Sf9 insect cells
T2 sequence (Q9Y6X5 16-407 limits assumed): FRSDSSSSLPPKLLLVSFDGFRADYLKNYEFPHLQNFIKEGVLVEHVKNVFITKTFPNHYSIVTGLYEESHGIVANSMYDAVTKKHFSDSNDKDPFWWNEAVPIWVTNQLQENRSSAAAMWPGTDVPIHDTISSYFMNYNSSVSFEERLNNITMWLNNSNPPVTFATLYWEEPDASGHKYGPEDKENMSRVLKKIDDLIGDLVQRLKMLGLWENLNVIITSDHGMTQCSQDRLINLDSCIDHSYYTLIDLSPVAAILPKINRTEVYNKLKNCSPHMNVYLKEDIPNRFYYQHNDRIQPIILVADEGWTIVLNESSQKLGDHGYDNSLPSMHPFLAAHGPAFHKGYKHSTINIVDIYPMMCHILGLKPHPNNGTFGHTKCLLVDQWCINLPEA
Experimental: Soluble NPP4 was expressed in Sf9 insect cells as recently described in detail ([Lopez et al., 2020]). Diadenosine tetraphosphate (AP4A) was employed as a substrate which is cleaved by NPP4 to ATP and AMP. The reaction product ATP was quantified by luciferin-luciferase reaction ([Lopez et al., 2020]). A mixture of 1.4 µg of NPP4 (soluble form expressed in insect cells and purified) ([Lopez et al., 2020]), 10 µM of test compound, 2 % DMSO, and 20 µM of AP4A as a substrate were incubated for 60 min at 37°C with gentle shaking. The reaction was terminated by heating at 90°C for 5 min, and after cooling down on ice, 50 µl of D-luciferin dissolved in buffer (300 mM Tris-HCl, 15 mM MgCl2, 100 ng D-luciferin, pH 7.8) and 50 µl of luciferase (50 ng dissolved in H2O) were added. The firefly luciferase reacts with D-luciferin in the presence of ATP produced by NPP4. The resulting luminescence was measured between 10–14 min at 560 nm using a BMG PheraStar FS plate reader (BMG Labtech GmbH, Ortenberg, Germany).

[1] = Metabolic stability in human liver microsomes; type: in vitro ADME; conditions: both sexes; human liver microsomes 0.5 mg/mL; compound 1 μM
Experimental: The experiments were performed by Pharmacelsus, Saarbrücken, Germany (https://www.pharmacelsus.com/services/in-vitro-adme/) using human and mouse liver microsomes (0.5 mg/mL, mixed gender, pooled). Compounds were tested at a concentration of 1 μM. Data points represent means of two separate experiments performed in duplicates.

CCCCSc1nc2c(N)ncnc2n1[C@@H]1O[C@H](COP(=O)(O)OP(=O)(O)C(Br)(Br)P(=O)(O)O)[C@@H](O)[C@H]1O [Compound 31, (((((((2R,3S,4R,5R)-5-(6-Amino-8-(butylthio)-9H-purin-9-yl)-3,4-dihydroxytetrahydrofuran-2-yl)methoxy)(hydroxy)-phosphoryl)oxy)(hydroxy)phosphoryl)dibromomethyl)-phosphonic Acid]
Ki (NPP1): 5.17 ± 1.75 µM
inhibition at 10 µM (NPP4): 2%
Ki (NPP4): > 10 µM
half-life at 1 μM [1]: < 1 min

CCN(CC)c1ncnc2c1ncn2[C@@H]1O[C@H](COP(=O)(O)OP(=O)(O)C(Br)(Br)P(=O)(O)O)[C@@H](O)[C@H]1O [ARL67156, (Dibromo((((((2R,3S,4R,5R)-5-(6-(diethylamino)-9H-purin-9-yl)-3,4-dihydroxytetrahydrofuran-2-yl)methoxy)-(hydroxy)-phosphoryl)oxy)(hydroxy)phosphoryl)methyl)-phosphonic Acid, reference compound]
Ki (NPP1): 4.41 ± 3.53 µM
inhibition at 10 µM (NPP4): -1%
Ki (NPP4): > 10 µM
half-life at 1 μM [1]: < 1 min

CCCCNc1nc2c(NC)ncnc2n1[C@@H]1O[C@H](COP(=O)(O)OP(=O)(O)C(Br)(Br)P(=O)(O)O)[C@@H](O)[C@H]1O [Compound 33, (Dibromo((((((2R,3S,4R,5R)-5-(8-(butylamino)-6-(methylamino)-9H-purin-9-yl)-3,4-dihydroxy-tetrahydrofuran-2-yl)methoxy)(hydroxy)phosphoryl)oxy)-(hydroxy)phosphoryl)methyl)-phosphonic Acid]
Ki (NPP1): 7.68 ± 5.4 µM
inhibition at 10 µM (NPP4): 4%
Ki (NPP4): > 10 µM
half-life at 1 μM [1]: < 1 min
